Patent publication US8865704B2, “Wnt pathway antagonists” (Siena Biotech S.p.A., priority 2009, dated 2014)

Test system: Wnt/β-catenin pathway
Experiment: Wnt reporter assay (TCF-Luciferase, Firefly) in DBTRG-05MG cells
Format: cell-based
Settings: Homo sapiens, 24 hours after compound addition
Description: TCF-Luciferase: Three copies of a 4×TCF responsive elements were cloned into the pcDNA3.1/Zeo(+) vector (Invitrogen) after deletion of the constitutive CMV promoter and the insertion of the Firefly Luciferase from Promega (phFL-TK) to measure the activity of the Wnt/β-catenin pathway. The resulting plasmid was sequenced for quality control.
Cells were grown in 20 μg/ml Zeocin and 20 μg/ml Zeocin plus 30 μg/ml Hygromicin respectively. The cells were plated at a density of 6500 cells/well in poly-D-lysine pre-treated 96 well-plates.
IC50 determination: 36 hours after plating cells were incubated with 8-points (60 μM-40 μM-20 μM-10 μM-5 μM-1.66 μM-0.55 μM-0.185 μM) dilutions compound (0.6% DMSO (v/v)). Each compound was tested in triplicate in single plate. Luciferase detection was done with Dual-Luciferase Reporter Assay System (Promega). 24 hours after compound addition, media was removed and 30 μl of 1× lysis buffer was added to each well for 30 minutes. To each well 45 μl of Dual-Glo Luciferase reagent (Promega) were added and after 1 second delay Luciferase was detected for 1 second using Mithras LB940 instrument. After Firefly luciferase quantification 45 μl of Dual Stop & Glo reagent (Promega) were added to each well and Firefly Renilla was detected using the same parameters described before.
Data were expressed as % of control for Firefly and Renilla luciferase independently; values were calculated using XLFit version 4.2, with a four parameters sigmoid function (XLFit model 205).

Row | SMILES | IC50 [µM]
1 | O=c1[nH]c2ccccc2c(=O)n1C[C@H]1CC[C@H](C(=O)N2CCN(c3ncccn3)CC2)CC1 [Example 1, trans-3-[4-(4-Pyrimidin-2-yl-piperazine-1-carbonyl)-cyclohexylmethyl]-1H-quinazoline-2,4-dione] | 0.3 to 30
2 | Cn1c(=O)n(C[C@H]2CC[C@H](C(=O)N3CCN(c4ccccc4)CC3)CC2)c(=O)c2ccccc21 [Example 2, trans-1-Methyl-3-[4-(4-phenyl-piperazine-1-carbonyl)-cyclohexylmethyl]-1H-quinazoline-2,4-dione] | 0.3 to 30
3 | O=C(C1CCCO1)N1CCN(C(=O)[C@H]2CC[C@H](Cn3c(=O)[nH]c4ccccc4c3=O)CC2)CC1 (stereo partly shown) [Example 4, 3-{4-[4-(Tetrahydro-furan-2-carbonyl)-piperazine-1-carbonyl]-cyclohexylmethyl}-1H-quinazoline-2,4-dione] | 0.3 to 30
4 | CC(C)C(=O)N1CCN(C(=O)[C@H]2CC[C@H](CN3C(=O)CC(c4ccccc4)NC3=O)CC2)CC1 (stereo partly drawn) [Example 6, 3-[trans-4-(4-Isobutyryl-piperazine-1-carbonyl)-cyclohexylmethyl]-6-phenyl-dihydro-pyrimidine-2,4-dione] | 0.3 to 30
5 | O=C(C1CC1)N1CCN(C(=O)[C@H]2CC[C@H](CN3Cc4ccccc4NC3=O)CC2)CC1 [Example 7, 3-[trans-4-(4-Cyclopropanecarbonyl-piperazine-1-carbonyl)cyclohexylmethyl]-3,4-dihydro-1H-quinazolin-2-one] | 0.3 to 30
6 | COc1ccc2[nH]c(=O)n(C[C@H]3CC[C@H](C(=O)N4CCOCC4)CC3)c2c1 [Example 8, 6-Methoxy-1-[trans-4-(morpholine-4-carbonyl)-cyclohexylmethyl]-1,3-dihydro-benzoimidazol-2-one] | 0.3 to 30
7 | COc1ccc2c(c1)n(C[C@H]1CC[C@H](C(=O)N3CCOCC3)CC1)c(=O)n2C [Example 9, 5-Methoxy-1-methyl-3-[trans-4-(morpholine-4-carbonyl)-cyclohexylmethyl]-1,3-dihydro-benzoimidazol-2-one] | 0.3 to 30
8 | O=C(C1CC1)N1CCN(C(=O)[C@H]2CC[C@H](Cn3c(=O)[nH]c4ccc(Cl)cc43)CC2)CC1 [Example 11, 6-Chloro-1-[trans-4-(4-cyclopropanecarbonyl-piperazine-1-carbonyl)cyclohexylmethyl]-1,3-dihydro-benzoimidazol-2-one] | 0.3 to 30
9 | CC(=O)N1CCN(C(=O)[C@H]2CC[C@H](CN3C(=O)Cc4ccccc4C3=O)CC2)CC1 [Example 12, 2-[trans-4-(4-Acetyl-piperazine-1-carbonyl)-cyclohexylmethyl]-4H-isoquinoline-1,3-dione] | 0.3 to 30
10 | O=C1CN(C[C@H]2CC[C@H](C(=O)N3CCN(c4ccccn4)CC3)CC2)C(=O)c2ccccc2N1 [Example 13, 4-[trans-4-(4-pyridin-2-yl-piperazine-1-carbonyl)-cyclohexylmethyl]-3,4-dihydro-1H-benzo[e][1,4]diazepine-2,5-dione] | 0.3 to 30
11 | CN1C(=O)CN(C[C@H]2CC[C@H](C(=O)N3CCN(c4ccccn4)CC3)CC2)C(=O)c2ccccc21 [Example 14, 1-Methyl-4-[trans-4-(4-pyridin-2-yl-piperazine-1-carbonyl)-cyclohexylmethyl]-3,4-dihydro-1H-benzo[e][1,4]diazepine-2,5-dione] | 0.3 to 30
12 | CN1C(=O)N(C[C@H]2CC[C@H](C(=O)N3CCN(c4ccccn4)CC3)CC2)C(=O)Cc2ccccc21 [Example 15, 1-Methyl-3-[trans-4-(4-pyridin-2-yl-piperazine-1-carbonyl)-cyclohexylmethyl]-1,5-dihydro-benzo[d][1,3]diazepine-2,4-dione] | 0.3 to 30
13 | O=C1Nc2ccccc2CCN1C[C@H]1CC[C@H](C(=O)N2CCN(c3ccccn3)CC2)CC1 [Example 16, 3-[trans-4-(4-pyridin-2-yl-piperazine-1-carbonyl)-cyclohexylmethyl]-1,3,4,5-tetrahydro-benzo[d][1,3]diazepin-2-one] | 0.3 to 30
14 | COc1ccc2c(c1)n(C[C@H]1CC[C@H](C(=O)N3CCN(C(C)=O)CC3)CC1)c(=O)n2C [Example 17, 3-[trans-4-(4-Acetyl-piperazine-1-carbonyl)-cyclohexylmethyl]-5-methoxy-1-methyl-1,3-dihydro-benzoimidazol-2-one] | 0.3 to 30
15 | O=C(C1CCC(Cn2cnc3ccccc3c2=O)CC1)N1CCN(Cc2ccccc2)CC1 (stereo not shown) [Example 19] | 0.3 to 30
16 | O=C(C1CCC(Cn2c(=O)[nH]c3ccccc3c2=O)CC1)N1CCOCC1 (stereo not shown) [Example 22] | 0.3 to 30
17 | O=C(Nc1cccnc1)C1CCC(Cn2c(=O)[nH]c3ccccc3c2=O)CC1 (stereo not shown) [Example 23] | 0.3 to 30
18 | O=c1[nH]c2ccccc2c(=O)n1C[C@H]1CC[C@H](C(=O)N2CCN(Cc3ccccc3)CC2)CC1 [Example 24] | 0.3 to 30
19 | O=c1[nH]c2ccc(Cl)cc2c(=O)n1C[C@H]1CC[C@H](C(=O)N2CCN(Cc3ccccc3)CC2)CC1 [Example 25] | 0.3 to 30
20 | COc1ccc(N2CCN(C(=O)C3CCC(Cn4c(=O)[nH]c5ccccc5c4=O)CC3)CC2)cc1 (stereo not shown) [Example 28] | 0.3 to 30
21 | CC(C)C(=O)N1CCN(C(=O)[C@H]2CC[C@H](Cn3c(=O)[nH]c4ccccc4c3=O)CC2)CC1 [Example 30] | 0.3 to 30
22 | COCC(=O)N1CCN(C(=O)[C@H]2CC[C@H](Cn3c(=O)[nH]c4ccccc4c3=O)CC2)CC1 [Example 31] | 0.3 to 30
23 | O=C(CCC1CCCC1)N1CCN(C(=O)[C@H]2CC[C@H](Cn3c(=O)[nH]c4ccccc4c3=O)CC2)CC1 [Example 32] | 0.3 to 30
24 | CC(=O)N1CCN(C(=O)[C@H]2CC[C@H](Cn3c(=O)[nH]c4ccccc4c3=O)CC2)CC1 [Example 33] | 0.3 to 30
25 | CC(C)(C)NC(=O)N1CCN(C(=O)[C@H]2CC[C@H](Cn3c(=O)[nH]c4ccccc4c3=O)CC2)CC1 [Example 34] | 0.3 to 30

Row | SMILES | IC50 [µM]
26 | CCCCC(=O)N1CCN(C(=O)[C@H]2CC[C@H](Cn3c(=O)[nH]c4ccccc4c3=O)CC2)CC1 [Example 35] | 0.3 to 30
27 | O=C(c1ccno1)N1CCN(C(=O)[C@H]2CC[C@H](Cn3c(=O)[nH]c4ccccc4c3=O)CC2)CC1 [Example 36] | 0.3 to 30
28 | COc1ccc(CN2CCN(C(=O)[C@H]3CC[C@H](Cn4c(=O)[nH]c5ccccc5c4=O)CC3)CC2)cc1 [Example 38] | 0.3 to 30
29 | COc1cccc(CN2CCN(C(=O)[C@H]3CC[C@H](Cn4c(=O)[nH]c5ccccc5c4=O)CC3)CC2)c1 [Example 39] | 0.3 to 30
30 | Cc1ccc(CN2CCN(C(=O)[C@H]3CC[C@H](Cn4c(=O)[nH]c5ccccc5c4=O)CC3)CC2)o1 [Example 40] | 0.3 to 30
31 | CC(C)N1CCN(C(=O)[C@H]2CC[C@H](Cn3c(=O)[nH]c4ccccc4c3=O)CC2)CC1 [Example 41] | 0.3 to 30
32 | O=C(N1CCCC1)N1CCN(C(=O)[C@H]2CC[C@H](Cn3c(=O)[nH]c4ccccc4c3=O)CC2)CC1 [Example 42] | 0.3 to 30
33 | CC(C)N1CCN(C(=O)[C@H]2CC[C@H](Cn3c(=O)[nH]c4ccc(Cl)cc4c3=O)CC2)CC1 [Example 43] | 0.3 to 30
34 | O=C1CC(c2ccccc2)NC(=O)N1C[C@H]1CC[C@H](C(=O)N2CCN(c3ccccc3)CC2)CC1 (stereo partly shown) [Example 44] | 0.3 to 30
35 | O=C1Nc2ccccc2CN1C[C@H]1CC[C@H](C(=O)N2CCN(c3ccccc3)CC2)CC1 [Example 45] | 0.3 to 30
36 | CN1C(=O)N(C[C@H]2CC[C@H](C(=O)N3CCN(c4ccccc4)CC3)CC2)Cc2ccccc21 [Example 46] | 0.3 to 30
37 | O=c1[nH]c2ccccc2c(=O)n1C[C@H]1CC[C@H](C(=O)Nc2ccc3ncsc3c2)CC1 [Example 49] | 0.3 to 30
38 | CC(c1ccccc1)N1CCN(C(=O)C2CCC(Cn3c(=O)[nH]c4ccccc4c3=O)CC2)CC1 (stereo not shown) [Example 50] | 0.3 to 30
39 | CC(C)C(=O)N1CCN(C(=O)[C@H]2CC[C@H](Cn3c(=O)[nH]c4cccc(Cl)c4c3=O)CC2)CC1 [Example 51] | 0.3 to 30
40 | CC(=O)N1CCN(C(=O)[C@H]2CC[C@H](Cn3c(=O)c4ccccc4n(C)c3=O)CC2)CC1 [Example 52] | 0.3 to 30
41 | COCC(=O)N1CCN(C(=O)[C@H]2CC[C@H](Cn3c(=O)c4ccccc4n(C)c3=O)CC2)CC1 [Example 53] | 0.3 to 30
42 | CC(C)C(=O)N1CCN(C(=O)[C@H]2CC[C@H](Cn3c(=O)[nH]c4cccc(F)c4c3=O)CC2)CC1 [Example 54] | 0.3 to 30
43 | COc1cccc2[nH]c(=O)n(C[C@H]3CC[C@H](C(=O)N4CCN(C(=O)C(C)C)CC4)CC3)c(=O)c12 [Example 55] | 0.3 to 30
44 | CC(C)C(=O)N1CCN(C(=O)[C@H]2CC[C@H](Cn3c(=O)n(C)c4ccccc43)CC2)CC1 [Example 61] | 0.3 to 30
45 | COCC(=O)N1CCN(C(=O)[C@H]2CC[C@H](Cn3c(=O)[nH]c4ccc(Cl)cc4c3=O)CC2)CC1 [Example 62] | 0.3 to 30
46 | O=C(C1CC1)N1CCN(C(=O)[C@H]2CC[C@H](Cn3c(=O)[nH]c4ccc(Cl)cc4c3=O)CC2)CC1 [Example 63] | 0.3 to 30
47 | CC(C)Cn1c(=O)n(C[C@H]2CC[C@H](C(=O)N3CCN(C(=O)C4CC4)CC3)CC2)c(=O)c2ccccc21 [Example 64] | 0.3 to 30
48 | COc1ccc2[nH]c(=O)n(C[C@H]3CC[C@H](C(=O)N4CCN(C(=O)C5CCCC5)CC4)CC3)c(=O)c2c1 [Example 65] | 0.3 to 30
49 | CN1C(=O)N(C[C@H]2CC[C@H](C(=O)N3CCN(C(=O)C4CC4)CC3)CC2)Cc2ccccc21 [Example 67] | 0.3 to 30
